Results as given in patent publication US20100267743A1, “3-(PHENOXYPYRROLIDIN-3-YL-METHYL)HETEROARYL, 3-(PHENYLPYRROLIDIN-3-YLMETHOXY)HETEROARYL, AND 3-(HETEROARYLPYRROLIDIN-3-YLMETHOXY)HETEROARYL COMPOUNDS” (priority 2009, published 2010).
Marks after values point to notes of the source that are not given here.

Key:
SERT = SERT (Homo sapiens, UniProt P31645); assay: hSERT radioligand binding assay (3H-citalopram); parameters: expressed in transfected cells; host or cells: HEK-293; conditions: hSERT membranes (HEK-293), 1.0 nM 3H-citalopram; for Ki: read-out: SERT pKi (converted)
Sequence of SERT (P31645 whole entry): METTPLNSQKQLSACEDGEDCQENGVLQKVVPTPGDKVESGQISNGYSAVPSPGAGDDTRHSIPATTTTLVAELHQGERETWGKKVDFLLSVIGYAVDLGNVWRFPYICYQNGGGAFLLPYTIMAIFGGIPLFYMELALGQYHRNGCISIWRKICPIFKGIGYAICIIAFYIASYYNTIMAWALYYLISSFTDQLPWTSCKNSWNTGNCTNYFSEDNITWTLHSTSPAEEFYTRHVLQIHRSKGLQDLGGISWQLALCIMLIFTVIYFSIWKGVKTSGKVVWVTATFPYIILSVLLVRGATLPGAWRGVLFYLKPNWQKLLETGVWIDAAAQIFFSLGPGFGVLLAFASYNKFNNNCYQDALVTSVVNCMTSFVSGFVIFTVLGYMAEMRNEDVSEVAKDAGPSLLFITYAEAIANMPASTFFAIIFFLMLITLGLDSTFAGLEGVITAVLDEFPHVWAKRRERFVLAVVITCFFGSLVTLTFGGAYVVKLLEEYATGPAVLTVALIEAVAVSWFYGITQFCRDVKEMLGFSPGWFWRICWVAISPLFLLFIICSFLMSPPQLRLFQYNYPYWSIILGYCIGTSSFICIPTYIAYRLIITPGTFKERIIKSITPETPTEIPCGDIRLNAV
Experimental: (§1) Membrane radioligand binding assays were used to measure inhibition of labeled ligand (^3H-citalopram or ^3H-nisoxetine or ^3H-WIN35428) binding to membranes prepared from cells expressing the respective human recombinant transporter (hSERT or hNET or hDAT) in order to determine the pKi values of test compounds at the transporters.
(§2) Recombinant human embryonic kidney (HEK-293) derived cell lines stably transfected with hSERT or hNET, respectively, were grown in DMEM medium supplemented with 10% dialyzed FBS (for hSERT) or FBS (for hNET), 100 μg/ml penicillin, 100 μg/ml streptomycin, 2 mM L-glutamine and 250 μg/ml of the aminoglycoside antibiotic G418, in a 5% CO2 humidified incubator at 37° C. When cultures reached 80% confluence, the cells were washed thoroughly in PBS (without […] and Mg^2+) and lifted with 5 mM EDTA in PBS. Cells were pelleted by centrifugation, resuspended in lysis buffer (10 mM Tris-HCl, pH7.5 containing 1 mM EDTA), homogenized, pelleted by centrifugation, then resuspended in 50 mM Tris-HCl, pH 7.5 and 10% sucrose at 4° C. Protein concentration of the membrane suspension was determined using a Bio-Rad Bradford Protein Assay kit. Membranes were snap frozen and stored at −80° C. Chinese hamster ovary membranes expressing hDAT (CHO-DAT) were purchased from PerkinElmer and stored at −80° C.
(§3) Binding assays were performed in a 96-well assay plate in a total volume of 200 μl assay buffer (50 mM Tris-HCl, 120 mM NaCl, 5 mM KCl, pH 7.4) with 0.5, 1, and 3 μg membrane protein, for SERT, NET and DAT, respectively.
(§4) Stock solutions (10 mM in DMSO) of test compound were prepared and serial dilutions made using Dilution Buffer (50 mM Tris-HCl, 120 mM NaCl, 5 mM KCl, pH 7.4, 0.1% BSA, 400 μM ascorbic acid).
(§5) Following a 60 minute incubation at 22° C. (or a period sufficient to reach equilibrium), the membranes were harvested by rapid filtration over a 96-well UniFilter GF/B plate, pretreated with 0.3% polyethyleneimine, and washed 6 times with 300 μl wash buffer (50 mM Tris-HCl, 0.9% NaCl, pH 7.5 at 4° C.). Plates were dried overnight at room temperature, ˜45 μl of MicroScint™-20 (Perkin Elmer) added and bound radioactivity quantitated via liquid scintillation spectroscopy. Inhibition curves and saturation isotherms were analyzed using GraphPad Prism Software package (GraphPad Software, Inc., San Diego, Calif.). IC50 values were generated from concentration response curves using the Sigmoidal Dose Response (variable slope) algorithm in Prism GraphPad. Kd and Bmax values for the radioligand were generated from saturation isotherms using the Saturation Binding Global Fit algorithm in Prism GraphPad. pKi (negative decadic logarithm of Ki) values for test compounds were calculated from the best-fit IC50 values, and the Kd value of the radioligand, using the Cheng-Prusoff equation (Cheng & Prusoff (1973) Biochem. Pharmacol. 22(23):3099-3108): Ki=IC50/(1+[L]/Kd), where [L]=concentration radioligand.

NET = NET (Homo sapiens, UniProt P23975); assay: hNET radioligand binding assay (3H-nisoxetine); parameters: expressed in transfected cells; host or cells: HEK-293; conditions: hNET membranes (HEK-293), 1.0 nM 3H-nisoxetine; for Ki: read-out: NET pKi (converted)
Sequence of NET (P23975 whole entry): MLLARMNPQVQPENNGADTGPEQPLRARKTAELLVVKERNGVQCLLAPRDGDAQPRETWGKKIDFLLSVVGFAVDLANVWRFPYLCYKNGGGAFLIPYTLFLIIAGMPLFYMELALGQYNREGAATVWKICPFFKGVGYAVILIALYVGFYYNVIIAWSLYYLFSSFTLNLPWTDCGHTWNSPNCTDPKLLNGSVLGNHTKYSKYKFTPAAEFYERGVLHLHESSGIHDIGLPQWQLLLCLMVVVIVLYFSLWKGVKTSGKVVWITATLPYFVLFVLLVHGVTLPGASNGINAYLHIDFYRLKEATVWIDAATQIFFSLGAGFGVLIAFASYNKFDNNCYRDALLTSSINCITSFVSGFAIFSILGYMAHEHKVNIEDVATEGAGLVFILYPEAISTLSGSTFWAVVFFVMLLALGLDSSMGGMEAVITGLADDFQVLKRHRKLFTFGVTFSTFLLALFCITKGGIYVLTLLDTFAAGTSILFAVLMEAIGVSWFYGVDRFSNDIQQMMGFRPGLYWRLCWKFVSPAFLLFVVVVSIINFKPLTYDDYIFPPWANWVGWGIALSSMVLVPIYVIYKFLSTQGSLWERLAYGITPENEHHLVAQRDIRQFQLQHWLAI
Experimental: as §1, §2, §3, §4, §5

SMILES	SERT pKi (SERT)	NET pKi (NET)	Ki (SERT) [µM]	Ki (NET) [µM]
Fc1cc(F)c(OC(c2nccs2)C2CCNC2)c(F)c1.O=C(O)C(F)(F)F (mixture of isomers) [Example 5-5, 2-[((S)-Pyrrolidin-3-yl-(2,4,6-trifluorophenoxy)methyl]thiazole]	≧7.0	≧7.0	–	–
Cc1cc(Cl)c(OC(c2nccs2)C2CCNC2)c(Cl)c1.O=C(O)C(F)(F)F (mixture of isomers) [Example 5-12, 2-[((S)-(2,6-Dichloro-4-methylphenoxy)-pyrrolidin-3-yl-methyl]thiazole]	≧7.0	≧5.0	–	–
Cc1cc(Cl)ccc1OC(c1nccs1)[C@H]1CCNC1 (single isomer, unassigned) [Example 4]	–	–	≤ 0.1	≤ 0.1
Clc1cc(Cl)c(O[C@@H](c2ncco2)[C@H]2CCNC2)cc1Cl [6-1]	–	–	≤ 0.1	≤ 0.1
Fc1cc(F)c(O[C@@H](c2ncco2)[C@H]2CCNC2)c(F)c1 [6-2]	–	–	≤ 10	≤ 10
Fc1c(Cl)ccc(O[C@@H](c2ncco2)[C@H]2CCNC2)c1Cl.O=C(O)C(F)(F)F [6-4]	≧7.0	≧7.0	–	–
Clc1cccc(Cl)c1O[C@@H](c1ncco1)[C@H]1CCNC1.O=C(O)C(F)(F)F [6-8]	≧7.0	≧7.0	–	–
Fc1cc(F)c(Cl)c(O[C@@H](c2ncco2)[C@H]2CCNC2)c1Cl.O=C(O)C(F)(F)F [6-9]	≧5.0	≧7.0	–	–
Fc1cc(F)c(Cl)c(O[C@H](c2ncco2)[C@H]2CCNC2)c1Cl [6-10]	–	–	≤ 0.1	≤ 10
Cc1cc(Cl)c(O[C@@H](c2ncco2)[C@H]2CCNC2)c(Cl)c1.O=C(O)C(F)(F)F [6-12]	≧7.0	≧5.0	–	–
Fc1cc(Cl)cc(F)c1OC(c1ncco1)C1CCNC1 (centres unmarked) [6-13]	≧7.0	≧7.0	–	–
Cc1cccc(C)c1O[C@@H](c1ncco1)[C@H]1CCNC1.O=C(O)C(F)(F)F [6-14]	≧7.0	≧7.0	–	–
Cc1cc(Cl)cc(C)c1O[C@@H](c1ncco1)[C@H]1CCNC1.O=C(O)C(F)(F)F [6-15]	≧7.0	≧5.0	–	–
Clc1ccc(OC(c2ncco2)C2CCNC2)c(Cc2ccccc2)c1 (centres unmarked) [6-16]	≧7.0	≧7.0	–	–
FC(F)(F)c1ccccc1O[C@@H](c1ncco1)[C@H]1CCNC1 [6-17]	–	–	≤ 10	≤ 0.1
FC(F)(F)c1cc(Cl)ccc1O[C@@H](c1ncco1)[C@H]1CCNC1.O=C(O)C(F)(F)F [6-18]	≧7.0	≧7.0	–	–
Clc1ccccc1O[C@@H](c1ncco1)[C@H]1CCNC1 [6-19]	≧5.0	≧7.0	–	–
Fc1ccc(F)c(O[C@H](c2ncco2)[C@H]2CCNC2)c1Cl [6-21]	–	–	≤ 10	≤ 10
Fc1ccc(O[C@@H](c2ncco2)[C@H]2CCNC2)c(Cl)c1.O=C(O)C(F)(F)F [6-22]	≧5.0	≧7.0	–	–
Cc1cc(Cl)c(O[C@@H](c2ncco2)[C@H]2CCNC2)cc1F.O=C(O)C(F)(F)F [6-24]	≧7.0	≧7.0	–	–
Clc1cc(-c2ccccc2)ccc1O[C@@H](c1ncco1)[C@H]1CCNC1.O=C(O)C(F)(F)F [6-25]	≧5.0	≧7.0	–	–
Cc1cccc(Cl)c1O[C@@H](c1ncco1)[C@H]1CCNC1 [6-26]	≧7.0	≧7.0	–	–

SMILES	SERT pKi (SERT)	NET pKi (NET)	Ki (SERT) [µM]	Ki (NET) [µM]
CC(=O)c1c(O[C@@H](c2ncco2)[C@H]2CCNC2)ccc(Cl)c1Cl.O=C(O)C(F)(F)F [6-27]	≧7.0	~5.0*	–	–
CC(=O)c1cc(F)cc(F)c1O[C@@H](c1ncco1)[C@H]1CCNC1.O=C(O)C(F)(F)F [6-28]	≧5.0	≧7.0	–	–
COC(=O)c1cc(Cl)ccc1O[C@@H](c1ncco1)[C@H]1CCNC1.O=C(O)C(F)(F)F [6-29]	≧7.0	≧7.0	–	–
CCc1cc(F)ccc1O[C@@H](c1ncco1)[C@H]1CCNC1.O=C(O)C(F)(F)F [6-30]	≧7.0	≧7.0	–	–
Fc1cc(Cl)ccc1O[C@@H](c1ncco1)[C@H]1CCNC1.O=C(O)C(F)(F)F [6-31]	≧7.0	≧7.0	–	–
CC(C)c1ccccc1O[C@@H](c1ncco1)[C@H]1CCNC1.O=C(O)C(F)(F)F [6-32]	≧5.0	≧7.0	–	–
Cc1ccccc1O[C@@H](c1ncco1)[C@H]1CCNC1 [6-33]	–	–	≤ 10	≤ 0.1
Cc1cc(Cl)ccc1O[C@@H](c1ncco1)[C@H]1CCNC1.O=C(O)C(F)(F)F [6-34]	≧7.0	≧7.0	–	–
Cc1cc(Cl)ccc1O[C@H](c1ncco1)[C@H]1CCNC1 [6-35]	–	–	≤ 0.1	≤ 10
O=C(O)C(F)(F)F.c1ccc(COc2ccccc2O[C@@H](c2ncco2)[C@H]2CCNC2)cc1 [6-36]	≧5.0	≧7.0	–	–
FC(F)(F)Oc1ccccc1O[C@@H](c1ncco1)[C@H]1CCNC1 [6-37]	–	–	≤ 10	≤ 0.1
CCOc1ccccc1O[C@@H](c1ncco1)[C@H]1CCNC1.O=C(O)C(F)(F)F [6-38]	≧5.0	≧7.0	–	–
COc1cc(Cl)ccc1O[C@@H](c1ncco1)[C@H]1CCNC1 [6-39]	≧7.0	≧7.0	–	–
COc1cc(Cl)c(F)cc1O[C@@H](c1ncco1)[C@H]1CCNC1.O=C(O)C(F)(F)F [6-40]	≧7.0	≧7.0	–	–
COc1cccc(F)c1O[C@@H](c1ncco1)[C@H]1CCNC1.O=C(O)C(F)(F)F [6-41]	≧5.0	≧7.0	–	–
O=C(O)C(F)(F)F.c1ccc(-c2ccccc2O[C@@H](c2ncco2)[C@H]2CCNC2)cc1 [6-42]	≧5.0	≧7.0	–	–
Clc1cc(Cl)cc(O[C@H](c2ncco2)[C@H]2CCNC2)c1 [6-44]	–	–	≤ 0.1	≤ 0.1
Clc1cccc(O[C@@H](c2ncco2)[C@H]2CCNC2)c1.O=C(O)C(F)(F)F [6-45]	≧5.0	≧7.0	–	–
Cc1cccc(O[C@@H](c2ncco2)[C@H]2CCNC2)c1 [6-46]	–	–	≤ 10	≤ 10
Clc1ccc(O[C@@H](c2ncco2)[C@H]2CCNC2)cc1.O=C(O)C(F)(F)F [6-47]	≧7.0	≧7.0	–	–
Cc1ccc(O[C@@H](c2ncco2)[C@H]2CCNC2)cc1 [6-48]	–	–	≤ 0.1	≤ 0.1
